Source: patent US20250257061A1, “COMPOSITIONS AND METHODS FOR TREATING CANCER AND REDUCING WNT MEDIATED EFFECTS” (StemSynergy Therapeutics, Inc., priority 2024, published 2025)
Where two headings read alike, the source gives them in different places.

What was measured:
[1] = system: Wnt reporter (TCF/LEF1 promoter); assay: HEK STF293 Wnt reporter (TOPFlash) luciferase assay, Steady Glo normalised to Cell Titer; assay type: cell-based, human
Method: All compounds were tested using the human cell line HEK STF293. This cell line carries a Wnt reporter (TCF/LEF1 promoter), which drives expression of the firefly luciferase protein. The level of Wnt activity is directly correlated with the level of luciferase activity (determined using a simple assay). Compounds that inhibit Wnt signaling by reducing luciferase activity in these two cell lines are further tested biochemically. […] Compounds were further tested in a Viability assay using Wnt-dependent HCT116 cell line. Compounds were prepared as 10 mM stocks for each compound in DMSO. Dilutions were prepared in a 96-well plate in DMSO. The stock dilutions are as follows: 10 mM, 1 mM, 100 μM, 10 μM, 100 nM, and 10 nM. Plates were sealed and stored at −20° C. […] On the first day, Wnt3a-conditioned media (1:1) were added along with diluted compounds (1:100). […] The final concentrations should therefore be 100 μM, 10 μM, 1 μM, 100 nM, 10 nM, and 1 nM. On the second day, the media was removed and 75 μL of Passive Lysis Buffer (Promega) is added to each well. The plate was shaken at 130 rpm for 15 minutes. For the Steady Glo assay, 45 μL of the lysis was removed and added to a white 96-well plate containing 45 μL/well of Steady Glo solution (Promega). For the Cell Titer assay, 25 μL of the lysis was transferred to a white 96-well plate containing 25 μL/well of Cell Titer solution (Promega). Both Steady Glo and Cell Titer assays were read with a luminescence plate reader. When determining EC50, the Steady Glo values were divided by the Cell Titer values to normalize for cell number. All compounds were tested using the human cell line HEK STF293. This cell line carries a Wnt reporter (TCF/LEF1 promoter), which drives expression of the firefly luciferase protein. The level of Wnt activity is directly correlated with the level of luciferase activity (determined using a simple assay). Compounds that inhibit Wnt signaling by reducing luciferase activity in these two cell lines are further tested biochemically. […] Compounds were further tested in a Viability assay using Wnt-dependent HCT116 cell line. Compounds were prepared as 10 mM stocks for each compound in DMSO. Dilutions were prepared in a 96-well plate in DMSO. The stock dilutions are as follows: 10 mM, 1 mM, 100 μM, 10 μM, 100 nM, and 10 nM. Plates were sealed and stored at −20° C. […] On the first day, Wnt3a-conditioned media (1:1) were added along with diluted compounds (1:100). […] The final concentrations should therefore be 100 μM, 10 μM, 1 μM, 100 nM, 10 nM, and 1 nM. On the second day, the media was removed and 75 μL of Passive Lysis Buffer (Promega) is added to each well. The plate was shaken at 130 rpm for 15 minutes. For the Steady Glo assay, 45 μL of the lysis was removed and added to a white 96-well plate containing 45 μL/well of Steady Glo solution (Promega). For the Cell Titer assay, 25 μL of the lysis was transferred to a white 96-well plate containing 25 μL/well of Cell Titer solution (Promega). Both Steady Glo and Cell Titer assays were read with a luminescence plate reader. When determining EC50, the Steady Glo values were divided by the Cell Titer values to normalize for cell number. All compounds were tested using the human cell line HEK STF293. This cell line carries a Wnt reporter (TCF/LEF1 promoter), which drives expression of the firefly luciferase protein. The level of Wnt activity is directly correlated with the level of luciferase activity (determined using a simple assay). Compounds that inhibit Wnt signaling by reducing luciferase activity in these two cell lines are further tested biochemically. […] Compounds were further tested in a Viability assay using Wnt-dependent HCT116 cell line. Compounds were prepared as 10 mM stocks for each compound in DMSO. Dilutions were prepared in a 96-well plate in DMSO. The stock dilutions are as follows: 10 mM, 1 mM, 100 μM, 10 μM, 100 nM, and 10 nM. Plates were sealed and stored at −20° C. […]

[2] = system: Wnt-dependent HCT116 cell line; assay: Viability assay using Wnt-dependent HCT116 cell line (Cell Titer Glo); assay type: cell-based
Method: All compounds were tested using the human cell line HEK STF293. This cell line carries a Wnt reporter (TCF/LEF1 promoter), which drives expression of the firefly luciferase protein. The level of Wnt activity is directly correlated with the level of luciferase activity (determined using a simple assay). Compounds that inhibit Wnt signaling by reducing luciferase activity in these two cell lines are further tested biochemically. […] Compounds were further tested in a Viability assay using Wnt-dependent HCT116 cell line. HEK293 cells were seeded in a 6-well plate at approximately 8.0×10^5 cells (2 mL per well). On the first day, Wnt3a-conditioned media (1:1) and compounds (1:100) were added to the plated cells. The final concentrations of compounds were 1 μM, 500 nM, and 100 nM. Vehicle (DMSO) and a Wnt3a-conditioned media plus Vehicle samples were also prepared as controls. Lysates were collected (with non-denaturing lysis buffer) after 24 hours incubation, and protein concentrations determined by Bradford Assay. Immunoblotting with an anti-beta-catenin antibody (equivalent amounts of protein/lane for each condition) were subsequently performed to determine beta-catenin levels. HCT116 cells were seeded at 2,500 cells/well in a 96-well dish (Volume: 100 μL/well). On the second day, the 10 mM stock solution of each test compound was thawed at room temperature. Dilutions of the test compound were prepared in DMSO in a V-bottom 96-well plate. The stock compound solution, DMSO-diluted compound solutions, and DMSO were further diluted 500-fold in cell culture media, and 100 μL of the compound- or DMSO-containing cell culture media was added to each well of the cells. […] The final DMSO concentration was 0.1% in all wells. On the fifth day, 150 μL of media was removed from each well. 50 μL/well Cell Titer Glo reagent (Promega) was added to each well. The plate was shaken at 130 rpm for 15 minutes at room temperature, and the cell viability was determined using a luminescence plate reader. All compounds were tested using the human cell line HEK STF293. This cell line carries a Wnt reporter (TCF/LEF1 promoter), which drives expression of the firefly luciferase protein. The level of Wnt activity is directly correlated with the level of luciferase activity (determined using a simple assay). Compounds that inhibit Wnt signaling by reducing luciferase activity in these two cell lines are further tested biochemically. […] Compounds were further tested in a Viability assay using Wnt-dependent HCT116 cell line. HEK293 cells were seeded in a 6-well plate at approximately 8.0×10^5 cells (2 mL per well). On the first day, Wnt3a-conditioned media (1:1) and compounds (1:100) were added to the plated cells. The final concentrations of compounds were 1 μM, 500 nM, and 100 nM. Vehicle (DMSO) and a Wnt3a-conditioned media plus Vehicle samples were also prepared as controls. Lysates were collected (with non-denaturing lysis buffer) after 24 hours incubation, and protein concentrations determined by Bradford Assay. Immunoblotting with an anti-beta-catenin antibody (equivalent amounts of protein/lane for each condition) were subsequently performed to determine beta-catenin levels. HCT116 cells were seeded at 2,500 cells/well in a 96-well dish (Volume: 100 μL/well). On the second day, the 10 mM stock solution of each test compound was thawed at room temperature. Dilutions of the test compound were prepared in DMSO in a V-bottom 96-well plate. The stock compound solution, DMSO-diluted compound solutions, and DMSO were further diluted 500-fold in cell culture media, and 100 μL of the compound- or DMSO-containing cell culture media was added to each well of the cells. […] The final DMSO concentration was 0.1% in all wells. On the fifth day, 150 μL of media was removed from each well. 50 μL/well Cell Titer Glo reagent (Promega) was added to each well. The plate was shaken at 130 rpm for 15 minutes at room temperature, and the cell viability was determined using a luminescence plate reader. […]

[3] = Homo sapiens, STF/293, Examples for Formulae (IV), (V), (VI), and (VII), HEK STF293 cells, Wnt3a-conditioned media, read-out: TOPFlash IC50 category
[4] = Homo sapiens, HCT-116, Examples for Formulae (IV), (V), (VI), and (VII), HCT116 cells, read-out: Viability IC50 category
[5] = Homo sapiens, STF/293, Examples for Formulae (VIII), (IX), and (X), HEK STF293 cells, Wnt3a-conditioned media, read-out: TOPFlash IC50 category
[6] = Homo sapiens, HCT-116, Examples for Formulae (VIII), (IX), and (X), HCT116 cells, read-out: Viability IC50 category
[7] = Examples for Formulae (IV), (V), (VI), and (VII), HEK STF293 cells, Wnt3a-conditioned media, read-out: TOPFlash IC50 category
[8] = Examples for Formulae (IV), (V), (VI), and (VII), HCT116 cells, read-out: Viability IC50 category
[9] = Homo sapiens, STF/293, read-out: TOPFlash IC50 category
[10] = Homo sapiens, HCT-116, read-out: Viability IC50 category
[11] = Homo sapiens, STF/293, Examples for Formulae (I), (II), and (III), HEK STF293 cells, Wnt3a-conditioned media, read-out: TOPFlash IC50 category
[12] = Homo sapiens, HCT-116, Examples for Formulae (I), (II), and (III), HCT116 cells, read-out: Viability IC50 category

Compound | IC50 [2, 4] [nM] | IC50 [2, 8] [nM] | IC50 [1, 3] [nM] | IC50 [1, 7] [nM] | also measured
O=C(Nc1nc(-c2ccccn2)cs1)c1ccn(Cc2ccc(C(F)(F)F)cc2)c(=O)c1 [Example 10] |  |  |  |  | IC50 [1, 5]: 500 to 1000 nM; IC50 [2, 6]: 500 to 1000 nM
Cc1onc(-c2cccc(F)c2)c1C(=O)Nc1nc(-c2ccccn2)cs1 [Example 5] | 200 to 500 |  | 200 to 500 |  | 
O=C(Nc1nc(-c2ccccn2)cs1)c1ccc(=O)n(Cc2ccc(C(F)(F)F)cc2)c1 [Example 7] |  |  |  |  | IC50 [1, 5]: 200 to 500 nM; IC50 [2, 6]: 200 to 500 nM
Cc1onc(-c2ccc(C(F)(F)F)cc2)c1C(=O)Nc1nc(-c2ccccn2)cs1 [Example 24] |  |  |  |  | IC50 [1, 9]: < 200 nM; IC50 [2, 10]: < 200 nM
Cc1nn(Cc2ccccc2)c(C)c1C(=O)Nc1nc(-c2ccccn2)cs1 [Example 4] |  |  |  |  | IC50 [1, 11]: 500 to 1000 nM; IC50 [2, 12]: 1000 to 10000 nM
Cc1nn(-c2ccccc2Cl)c(C(F)F)c1C(=O)Nc1nc(-c2ccccn2)cs1 [Example 12] |  |  |  |  | IC50 [1, 11]: 200 to 500 nM; IC50 [2, 12]: 500 to 1000 nM
Cc1nn(Cc2ccc(F)cc2)c(C)c1C(=O)Nc1nc(-c2ccccn2)cs1 [Example 7] |  |  |  |  | IC50 [1, 11]: 500 to 1000 nM; IC50 [2, 12]: 500 to 1000 nM
O=C(Nc1nc(-c2ccccn2)cs1)c1ccn(Cc2ccc(F)cc2)c(=O)c1 [Example 9] |  |  |  |  | IC50 [1, 5]: 1000 to 10000 nM; IC50 [2, 6]: 1000 to 10000 nM
CN(c1ncc(C(=O)O)o1)S(=O)(=O)c1ccc(C(F)(F)F)cc1 [Example 43] |  | < 200 |  | < 200 | 
Cc1onc(-c2cccc(F)c2F)c1C(=O)Nc1nc(-c2ccccn2)cs1 [Example 19] | 200 to 500 |  | 200 to 500 |  | 
COc1ncccc1-c1noc(C)c1C(=O)Nc1nc(-c2ccccn2)cs1 [Example 22] |  |  |  |  | IC50 [1, 9]: 200 to 500 nM; IC50 [2, 10]: 200 to 500 nM
CN1CCN(c2cccc(-c3ncoc3C(=O)Nc3nc(-c4ccccn4)cs3)c2)CC1 [Example 45] |  | 1000 to 10000 |  | 1000 to 10000 | 
Cc1onc(-c2c(Cl)cccc2Cl)c1C(=O)Nc1nc(-c2ccccn2)cs1 [Example 29] |  |  |  |  | IC50 [1, 9]: < 200 nM; IC50 [2, 10]: < 200 nM

Second part, led by results:

IC50 [2, 4] [nM] | IC50 [2, 8] [nM] | Compound | IC50 [1, 3] [nM] | IC50 [1, 7] [nM] | also measured
< 200 |  | Cc1onc(-c2ccc(OC(F)(F)F)cc2)c1C(=O)Nc1nc(-c2ccccn2)cs1 [Example 26] | 200 to 500 |  | 
 | < 200 | C#Cc1ccc(-c2nc(C)oc2C(=O)Nc2nc(-c3ccccn3)cs2)cc1 [Example 68] |  | < 200 | 
200 to 500 |  | O=C(Nc1nc(-c2ccccn2)cs1)c1oc(C2CC2)nc1-c1ccc(F)cc1 [Example 31] | < 200 |  | 
200 to 500 |  | Cc1onc(-c2ccc(Cl)cc2F)c1C(=O)Nc1nc(-c2ccccn2)cs1 [Example 16] | 200 to 500 |  | 
 | < 200 | CN(c1nc(-c2ccc(Cl)cc2)c(C(=O)Nc2nc(-c3ccccn3)cs2)o1)S(=O)(=O)c1ccc(C(F)(F)F)cc1 [Example 73] |  | < 200 | 
 | < 200 | CN(c1nc(-c2ccc(S(C)(=O)=O)cc2)c(C(=O)Nc2nc(-c3ccccn3)cs2)o1)S(=O)(=O)c1ccc(C(F)(F)F)cc1 [Example 75] |  | 200 to 500 | 
< 200 |  | CCS(=O)(=O)N(C)c1nc(-c2ccc(F)cc2)c(C(=O)Nc2nc(-c3ccccn3)cs2)o1 [Example 57] | < 200 |  | 
1000 to 10000 |  | CN(c1nc(C(F)(F)F)c(C(=O)Nc2nc(-c3ccccn3)cs2)o1)S(=O)(=O)c1ccc(F)cc1 [Example 54] | 1000 to 10000 |  | 
 | 500 to 1000 | Cc1nc(N(C)C(=O)c2ccccc2Cl)oc1C(=O)Nc1nc(-c2ccccn2)cs1 [Example 77] |  | 200 to 500 | 
 | < 200 | CN(c1nc(-c2ccc(S(C)(=O)=O)cc2)c(C(=O)Nc2nc(-c3ccccn3)cs2)o1)S(=O)(=O)c1ccc(F)cc1 [Example 74] |  | < 200 | 
500 to 1000 |  | Cc1nc(N(C)S(=O)(=O)c2ccccc2Cl)oc1C(=O)Nc1nc(-c2ccccn2)cs1 [Example 49] | 200 to 500 |  | 
 | 500 to 1000 | CN(c1nc(C(F)(F)F)c(C(=O)Nc2nc(-c3ccccn3)cs2)o1)S(=O)(=O)c1ccc(Cl)cc1 [Example 53] |  | 500 to 1000 | 
200 to 500 |  | O=C(Nc1nc(-c2ccccn2)cs1)c1ocnc1-c1ccc(F)cc1F [Example 12] | 200 to 500 |  | 
